In patent US9738655B2, “Tetrahydroisoquinolines containing substituted azoles as factor XIa inhibitors” (BRISTOL-MYERS SQUIBB COMPANY, priority 2013, dated 2017):
Structures can show the parent of a compound that is named as a salt.

Columns and labels:
[1] = target: purified human plasma kallikrein (Homo sapiens (Human), UniProt P03952); experiment: Plasma kallikrein enzyme inhibition assay (chromogenic substrate S-2302); assay type: biochemical; settings: measured at 25° C. (no asterisk)
[2] = target: purified human Factor XIa (Homo sapiens (Human), UniProt P03951); experiment: Factor XIa enzyme inhibition assay (chromogenic substrate S-2366); settings: read-out: Factor XIa Ki; measured at 25° C.
purified human Factor XIa, sequence (P03951 388-625): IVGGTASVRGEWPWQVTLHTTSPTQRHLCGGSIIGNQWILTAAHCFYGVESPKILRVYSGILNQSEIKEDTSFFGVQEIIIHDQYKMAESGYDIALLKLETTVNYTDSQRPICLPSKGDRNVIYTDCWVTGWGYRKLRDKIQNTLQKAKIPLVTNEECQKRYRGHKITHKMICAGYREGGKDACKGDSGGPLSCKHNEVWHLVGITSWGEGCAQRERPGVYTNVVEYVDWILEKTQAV
purified human Factor XIa, sequence (P03951 19-387 partner): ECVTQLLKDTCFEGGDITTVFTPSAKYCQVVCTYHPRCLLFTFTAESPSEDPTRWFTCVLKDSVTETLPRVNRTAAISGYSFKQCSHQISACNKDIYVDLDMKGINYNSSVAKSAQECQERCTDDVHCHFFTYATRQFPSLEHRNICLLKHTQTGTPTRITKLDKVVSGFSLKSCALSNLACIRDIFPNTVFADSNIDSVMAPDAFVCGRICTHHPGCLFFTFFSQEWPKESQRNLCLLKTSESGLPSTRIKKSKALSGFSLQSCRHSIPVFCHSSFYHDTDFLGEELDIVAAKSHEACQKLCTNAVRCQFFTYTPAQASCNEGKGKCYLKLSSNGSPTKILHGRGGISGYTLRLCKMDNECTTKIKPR

purified human plasma kallikrein, sequence (P03952 391-638): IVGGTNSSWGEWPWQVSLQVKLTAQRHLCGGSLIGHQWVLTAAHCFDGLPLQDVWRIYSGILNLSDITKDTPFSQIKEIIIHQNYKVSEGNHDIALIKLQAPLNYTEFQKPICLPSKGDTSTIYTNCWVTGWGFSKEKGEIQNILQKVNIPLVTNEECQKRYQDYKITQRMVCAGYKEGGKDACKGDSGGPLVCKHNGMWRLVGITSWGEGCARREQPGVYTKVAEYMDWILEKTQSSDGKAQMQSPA
purified human plasma kallikrein, sequence (P03952 20-390 partner): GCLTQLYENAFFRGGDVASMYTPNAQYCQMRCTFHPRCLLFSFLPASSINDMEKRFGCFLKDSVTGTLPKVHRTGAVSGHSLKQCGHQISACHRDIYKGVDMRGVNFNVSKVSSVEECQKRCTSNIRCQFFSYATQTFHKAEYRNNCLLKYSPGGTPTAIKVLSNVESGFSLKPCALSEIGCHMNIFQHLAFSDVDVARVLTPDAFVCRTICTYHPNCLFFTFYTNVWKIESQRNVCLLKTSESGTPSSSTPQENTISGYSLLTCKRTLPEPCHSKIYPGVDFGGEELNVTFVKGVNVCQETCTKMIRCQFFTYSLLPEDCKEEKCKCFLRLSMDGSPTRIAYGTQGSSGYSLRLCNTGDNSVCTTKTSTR

SMILES	Ki [1] [µM]	Ki [2] [µM]
CN1CCN(c2cccc3c2CCN(C(=O)c2cn(-c4cccc(Cl)c4F)nn2)C3C(=O)Nc2ccc(C(=O)O)cc2)CC1 (stereo not drawn) [Example 211, 4-(2-(1-(3-chloro-2-fluorophenyl)-1H-1,2,3-triazole-4-carbonyl)-5-(4-methylpiperazin-1-yl)-1,2,3,4-tetrahydroisoquinoline-1-carboxamido)benzoic acid, 2 TFA salt]	0.00052	< 0.005
COC1CCN(c2cccc3c2CCN(C(=O)c2cn(-c4cccc(Cl)c4F)nn2)C3C(=O)Nc2ccc(C(=O)O)cc2)CC1 (stereo not drawn) [Example 215, 4-(2-(1-(3-chloro-2-fluorophenyl)-1H-1,2,3-triazole-4-carbonyl)-5-(4-methoxypiperidin-1-yl)-1,2,3,4-tetrahydroisoquinoline-1-carboxamido)benzoic acid, TFA salt]	0.0202	< 0.005
CN1CCN(c2cccc3c2CCN(C(=O)C2CC(c4cccc(Cl)c4)=NO2)C3C(=O)Nc2ccc(C(=O)O)cc2)CC1 (stereo not drawn) [Example 217, 4-(2-(3-(3-chlorophenyl)-4,5-dihydroisoxazole-5-carbonyl)-5-(4-methylpiperazin-1-yl)-1,2,3,4-tetrahydroisoquinoline-1-carboxamido)benzoic acid, 2 TFA salt]	0.00312	0.0152
CCOC(=O)c1ccc(NC(=O)C2c3cccc(N4CCC(N5CCCC5)CC4)c3CCN2C(=O)c2cn(-c3cccc(Cl)c3F)nn2)cc1 (stereo not drawn) [Example 219, Ethyl 4-(2-(1-(3-chloro-2-fluorophenyl)-1H-1,2,3-triazole-4-carbonyl)-5-(4-(pyrrolidin-1-yl)piperidin-1-yl)-1,2,3,4-tetrahydroisoquinoline-1-carboxamido)benzoate, 2 TFA salt]	0.00196	< 0.005
Cn1cc2c(n1)CCN(C(=O)c1cn(-c3cccc(Cl)c3F)nn1)C2C(=O)Nc1ccc(C(=O)O)cc1 (stereo not drawn) [Example 220, 4-(5-(1-(3-Chloro-2-fluorophenyl)-1H-1,2,3-triazole-4-carbonyl)-2-methyl-4,5,6,7-tetrahydro-2H-pyrazolo[4,3-c]pyridine-4-carboxamido)benzoic acid]	0.179	0.769
Cc1nn(C)c2c1C(C(=O)Nc1ccc(C(=O)O)cc1)N(C(=O)c1cn(-c3cccc(Cl)c3F)nn1)CC2 (stereo not drawn) [Example 221, 4-(5-(1-(3-Chloro-2-fluorophenyl)-1H-1,2,3-triazole-4-carbonyl)-1,3-dimethyl-4,5,6,7-tetrahydro-1H-pyrazolo[4,3-c]pyridine-4-carboxamido)benzoic acid]	0.00956	0.179
Cc1c2c(nn1C)CCN(C(=O)c1cn(-c3cccc(Cl)c3F)nn1)C2C(=O)Nc1ccc(C(=O)O)cc1 (stereo not drawn) [Example 222, 4-(5-(1-(3-Chloro-2-fluorophenyl)-1H-1,2,3-triazole-4-carbonyl)-2,3-dimethyl-4,5,6,7-tetrahydro-2H-pyrazolo[4,3-c]pyridine-4-carboxamido)benzoic acid]	0.0104	0.03
CC(C)c1nnc2n1CCN(C(=O)c1cn(-c3cccc(Cl)c3F)nn1)C2C(=O)Nc1ccc(C(=O)O)cc1 (stereo not drawn) [Example 223, 4-(7-(1-(3-Chloro-2-fluorophenyl)-1H-1,2,3-triazole-4-carbonyl)-3-isopropyl-5,6,7,8-tetrahydro-[1,2,4]triazolo[4,3-a]pyrazine-8-carboxamido)benzoic acid]	3.51	2.63
COC(C)(C)C1CCN(c2cccc3c2CCN(C(=O)c2cnn(-c4cccc(Cl)c4F)c2)C3C(=O)Nc2ccc(C(=O)O)cc2)CC1 (stereo not drawn) [Example 224, 4-(2-(1-(3-Chloro-2-fluorophenyl)-1H-pyrazole-4-carbonyl)-5-(4-(2-methoxypropan-2-yl)piperidin-1-yl)-1,2,3,4-tetrahydroisoquinoline-1-carboxamido)benzoic acid, TFA salt]	0.092	< 0.005
